# Measured values: PMC7265429, “Characterization of a new small-molecule inhibitor of HDAC6 in glioblastoma” (Cell Death & Disease, 2020)
# Test system: GNS166 cells
# Test: Microarray whole-transcriptome gene expression analysis
# Format: cell-based, human
# Details: DMSO vs SAHA, downregulated
# Protocol: Whole-transcriptome analysis was performed from 300 ng of RNA using HuGene-2_0-st-v1 expression array (Affymetrix), which covers 48,226 transcripts. Raw data were first checked for quality purposes through the Affymetrix® Expression Console™ Software v1.4.1 and TAC software v4.0. Then, data were normalized using the Robust Multi-array Average (RMA) and analyzed by Limma tool. Probesets with FDR-corrected p-values smaller than 0.05 were selected. Functional enrichment on Gene Ontology (GO) biological processes was performed on a smaller subset of the differentially expressed genes (corrected p-value < 0.001) by means of Broad Institute GSEA. […] The data that support this study have been deposited in NCBI´s Gene Expression Omnibus and are accessible through GEO series accession number GSE143887.
structure (smiles),measurement,setting,value
"O=C(CCCCCCC(=O)Nc1ccccc1)NO [SAHA, Suberoylanilide hydroxamic acid]",logFC GTF2IRD2,transcript TC0700011518.hg.1,-2.067
same,logFC GBAS,transcript TC0700013363.hg.1,-1.318
same,logFC NDUFB2,transcript TC0700013468.hg.1,-1.3
same,logFC MSRA,transcript TC0800006692.hg.1,-1.45
same,logFC CYC1,transcript TC0800009239.hg.1,-1.06
same,logFC PBK,transcript TC0800009970.hg.1,-1.706
same,logFC ANK1,transcript TC0800010252.hg.1,-2.257
same,logFC NSMAF,transcript TC0800010553.hg.1,-1.838
same,logFC CPA6,transcript TC0800010708.hg.1,-2.501
same,logFC HAS2,transcript TC0800011646.hg.1,-1.946
same,logFC FXN,transcript TC0900007494.hg.1,-0.9868
same,logFC NEK6,transcript TC0900008716.hg.1,-1.139
same,logFC ARHGEF39,transcript TC0900009948.hg.1,-1.156
same,logFC KIAA0368,transcript TC0900011200.hg.1,-1.9364
same,logFC SUSD1,transcript TC0900011220.hg.1,-2.309
same,logFC PHF19,transcript TC0900011388.hg.1,-2.061
same,logFC CIZ1,transcript TC0900011626.hg.1,-1.331
same,logFC TOR1A,transcript TC0900011709.hg.1,-1.605
same,logFC VAV2,transcript TC0900011864.hg.1,-1.105
same,logFC ANAPC16,transcript TC1000007986.hg.1,-1.273
same,logFC PLEKHS1,transcript TC1000008955.hg.1,-2.168
same,logFC SEPHS1,transcript TC1000009844.hg.1,-1.411
same,logFC EPC1,transcript TC1000010256.hg.1,-1.207
same,logFC PBLD,transcript TC1000010843.hg.1,-1.5
same,logFC DNAJB12,transcript TC1000010990.hg.1,-1.539
same,logFC PRDX3,transcript TC1000011993.hg.1,-0.8845
same,logFC MKI67,transcript TC1000012235.hg.1,-1.335
same,logFC AS3MT,transcript TC1000012496.hg.1,-1.5939
same,logFC PARVA,transcript TC1100006879.hg.1,-1.499
same,logFC CCND1,transcript TC1100008236.hg.1,-0.9478
same,logFC TSKU,transcript TC1100008514.hg.1,-1.319
same,logFC NTM,transcript TC1100009561.hg.1,-2.198
same,logFC IFITM3,transcript TC1100009657.hg.1,-1.487
same,logFC FOSL1,transcript TC1100011259.hg.1,-2.603
same,logFC TRIM22,transcript TC1100012957.hg.1,-3.047
same,logFC CHEK1,transcript TC1100013111.hg.1,-0.9424
same,logFC CDCA5,transcript TC1100013184.hg.1,-1.4587
same,logFC CLCF1,transcript TC1100013192.hg.1,-1.898
same,logFC TSPAN9,transcript TC1200006520.hg.1,-1.358
same,logFC RAD51AP1,transcript TC1200006561.hg.1,-1.95
same,logFC C12orf57,transcript TC1200006656.hg.1,-1.605
same,logFC ESPL1,transcript TC1200007707.hg.1,-1.687
same,logFC IKZF4,transcript TC1200007822.hg.1,-1.324
same,logFC FOXM1,transcript TC1200009621.hg.1,-2.01
same,logFC CDCA3,transcript TC1200009759.hg.1,-2.054
same,logFC MFAP5,transcript TC1200009834.hg.1,-1.349
same,logFC TAS2R10,transcript TC1200009919.hg.1,-2.012
same,logFC MCRS1,transcript TC1200010633.hg.1,-1.188
same,logFC MMAB,transcript TC1200011873.hg.1,-1.164
same,logFC WSB2,transcript TC1200012105.hg.1,-1.343
same,logFC CIT,transcript TC1200012143.hg.1,-1.292
same,logFC TAPBPL,transcript TC1200012584.hg.1,-1.336
same,logFC PRR4,transcript TC1200012755.hg.1,-1.713
same,logFC R3HDM2,transcript TC1200012808.hg.1,-1.233
same,logFC PHF11,transcript TC1300007167.hg.1,-1.841
same,logFC ITGBL1,transcript TC1300007870.hg.1,-1.539
same,logFC DIAPH3,transcript TC1300009088.hg.1,-1.66
same,logFC GAS6,transcript TC1300009924.hg.1,-1.149
same,logFC RHOJ,transcript TC1400007404.hg.1,-2.1714
same,logFC BTBD6,transcript TC1400008476.hg.1,-1.003
same,logFC AJUBA,transcript TC1400010715.hg.1,-1.776
same,logFC ARHGAP11B,transcript TC1500006785.hg.1,-1.512
same,logFC CCNB2,transcript TC1500007392.hg.1,-2.179
same,logFC TPM1,transcript TC1500007510.hg.1,-1.243
same,logFC KIF23,transcript TC1500007699.hg.1,-1.664
same,logFC MAN2A2,transcript TC1500008341.hg.1,-1.396
same,logFC LCTL,transcript TC1500009830.hg.1,-1.502
same,logFC PRC1,transcript TC1500010463.hg.1,-1.211
same,logFC ARHGAP11B,transcript TC1500010707.hg.1,-1.7076
same,logFC C16orf62,transcript TC1600007113.hg.1,-1.881
same,logFC PLK1,transcript TC1600007235.hg.1,-1.599
same,logFC ARL2BP,transcript TC1600007992.hg.1,-1.083
same,logFC SHCBP1,transcript TC1600010168.hg.1,-1.56
same,logFC XAF1,transcript TC1700006709.hg.1,-1.919
same,logFC MPDU1,transcript TC1700006758.hg.1,-1.716
same,logFC GOSR1,transcript TC1700007454.hg.1,-1.325
same,logFC CCL2,transcript TC1700007557.hg.1,-1.8857
same,logFC ABCC3,transcript TC1700008263.hg.1,-2.846
same,logFC BIRC5,transcript TC1700009043.hg.1,-1.565
same,logFC AURKB,transcript TC1700009679.hg.1,-1.67
same,logFC CENPV,transcript TC1700009888.hg.1,-1.862
same,logFC MED24,transcript TC1700010599.hg.1,-1.405
same,logFC TOP2A,transcript TC1700010618.hg.1,-1.269
same,logFC CCDC43,transcript TC1700010841.hg.1,-0.9856
same,logFC ALYREF,transcript TC1700012078.hg.1,-1.381
same,logFC SPAG5,transcript TC1700012380.hg.1,-2.042
same,logFC SERPINB8,transcript TC1800009245.hg.1,-1.496
same,logFC NFIC,transcript TC1900006628.hg.1,-1.238
same,logFC SYDE1,transcript TC1900007208.hg.1,-1.288
